{"source": "patent US20230322771A1", "about": "“HETEROCYCLIC GLP-1 AGONISTS” (Gasherbrum Bio, Inc., priority 2020, published 2023)", "data": [{"biological_target": "GLP-1 Receptor (Homo sapiens, UniProt P43220)", "sequence (P43220 24-463)": "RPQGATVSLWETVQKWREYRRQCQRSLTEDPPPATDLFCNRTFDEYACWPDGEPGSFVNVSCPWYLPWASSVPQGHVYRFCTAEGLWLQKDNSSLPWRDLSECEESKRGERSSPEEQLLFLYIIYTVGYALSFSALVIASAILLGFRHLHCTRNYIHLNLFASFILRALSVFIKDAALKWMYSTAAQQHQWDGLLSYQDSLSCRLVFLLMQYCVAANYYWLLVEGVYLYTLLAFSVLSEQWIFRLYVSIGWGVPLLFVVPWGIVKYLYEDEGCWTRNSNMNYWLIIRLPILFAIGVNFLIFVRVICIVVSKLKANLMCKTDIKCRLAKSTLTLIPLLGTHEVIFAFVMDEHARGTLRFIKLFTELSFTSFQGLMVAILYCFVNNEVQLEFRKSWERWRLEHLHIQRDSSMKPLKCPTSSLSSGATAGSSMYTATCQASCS", "experiment": "GLP-1R agonist cAMP stimulation assay (HEK293/GLP1R/CRE-LUC cells, HTRF cAMP dynamic 2 kit)", "format": "cell-based", "details": "HEK293/CRE-Luc cell line (HDB) stably expressing GLP-1 Receptor; 30 min incubation at 37° C.; read-out: GLP1R cAMP Stimulation DR: EC50 (nM) [Species: Human, Assay Cell Line: HDB]", "procedure": "(§1) Activation of GLP-1 receptor is known to stimulate cyclic AMP (cAMP) production in cells which indicates primary coupling to the Gαs subunit of the G protein heterotrimeric complex.\n(§2) To optimize functional activity directed toward Gαs coupling, a HEK293/CRE-Luc cell line developed by HDB stably expressing the GLP-1 Receptor was used. 200× concentration of compound working solutions were prepared (Agilent Technologies Bravo) with ½ log serial dilution in 384-well Echo LDV plate (Labcyte, Cat #LP-0200). 50 nL/well 200× concentration of compound working solutions were moved to 384-well white low volume plate (Greiner, Cat #784075) using Labcyte ECHO550. 1×10^5 cells/mL HEK293/GLP1R/CRE-LUC(HD Biosciences) cell suspensions prepared with assay buffer[DPBS containing 0.5 mM IBMX(Sigma, Cat #15879) and 0.1% BSA(GENVIEW, Cat #FA016-100 g)], 10 uL cell suspensions were added to each well of previous generated assay plate which already contains 50 nl compound at 200× concentration using ThermoFisher Multidrop Combi(1000 cells/well). Seal the plate and incubate at 37° C. with 5% CO2 for 30 min.\n(§3) After incubation the cAMP assay signal was generated using cAMP dynamic 2 Kit (Cisbio). 5 μL cAMP-d2 working solution was added to each well, followed with 5 μL Anti-cAMP antibody-cryptate working solution added to each well using ThermoFisher Multidrop Combi. Incubate at room temperature for 1 hour protected from light. Read the fluorescence at 665 and 615 nm with Reader PerkinElmer EnVision.\n(§4) % Activity=100%×(mean RLU of test sample−mean RLU of vehicle control)/(mean RLU of MAX control−mean RLU of vehicle control))", "units": {"EC50": "nM"}, "values": [{"smiles": "Cc1cc(-n2nc3c(c2-n2ccn(-c4cccc(CS(C)(=O)=O)c4)c2=O)[C@H](C)N(C(=O)c2cc4cc(C5CCOCC5)ccc4n2[C@@]2(c4noc(=O)[nH]4)C[C@@H]2C)CC3)cc(C)c1F", "note": "[Compound 102a, 3-((1S,2S)-1-(2-((S)-2-(4-fluoro-3,5-dimethylphenyl)-4-methyl-3-(3-(3-((methylsulfonyl)methyl)phenyl)-2-oxo-2,3-dihydro-1H-imidazol-1-yl)-4,5,6,7-tetrahydro-2H-pyrazolo[4,3-c]pyridine-5-carbonyl)-5-(tetrahydro-2H-pyran-4-yl)-1H-indol-1-yl)-2-methylcyclopropyl)-1,2,4-oxadiazol-5(4H)-one]", "EC50": 0.27}, {"smiles": "CCS(=O)(=O)Cc1ccc(-n2ccn(-c3c4c(nn3-c3cc(C)c(F)c(C)c3)CCN(C(=O)c3cc5cc(C6CCOCC6)ccc5n3[C@@]3(c5noc(=O)[nH]5)C[C@@H]3C)[C@H]4C)c2=O)cc1", "note": "[Compound 103a, 3-((1S,2S)-1-(2-((S)-3-(3-(4-((ethylsulfonyl)methyl)phenyl)-2-oxo-2,3-dihydro-1H-imidazol-1-yl)-2-(4-fluoro-3,5-dimethylphenyl)-4-methyl-4,5,6,7-tetrahydro-2H-pyrazolo[4,3-c]pyridine-5-carbonyl)-5-(tetrahydro-2H-pyran-4-yl)-1H-indol-1-yl)-2-methylcyclopropyl)-1,2,4-oxadiazol-5(4H)-one]", "EC50": 0.065}, {"smiles": "CNS(=O)(=O)c1ccc(-n2ccn(-c3c4c(nn3-c3cc(C)c(F)c(C)c3)CCN(C(=O)c3cc5cc(C6CCOCC6)ccc5n3[C@@]3(c5noc(=O)[nH]5)C[C@@H]3C)[C@H]4C)c2=O)cc1", "note": "[Compound 104a, 4-(3-((S)-2-(4-fluoro-3,5-dimethylphenyl)-4-methyl-5-(1-((1S,2S)-2-methyl-1-(5-oxo-4,5-dihydro-1,2,4-oxadiazol-3-yl)cyclopropyl)-5-(tetrahydro-2H-pyran-4-yl)-1H-indole-2-carbonyl)-4,5,6,7-tetrahydro-2H-pyrazolo[4,3-c]pyridin-3-yl)-2-oxo-2,3-dihydro-1H-imidazol-1-yl)-N-methylbenzenesulfonamide]", "EC50": 0.081}, {"smiles": "Cc1cc(-n2nc3c(c2-n2ccn(-c4ccc(NS(C)(=O)=O)cc4)c2=O)[C@H](C)N(C(=O)c2cc4cc(C5CCOCC5)ccc4n2[C@@]2(c4noc(=O)[nH]4)C[C@@H]2C)CC3)cc(C)c1F", "note": "[Compound 105a, N-(4-(3-((S)-2-(4-fluoro-3,5-dimethylphenyl)-4-methyl-5-(1-((1S,2S)-2-methyl-1-(5-oxo-4,5-dihydro-1,2,4-oxadiazol-3-yl)cyclopropyl)-5-(tetrahydro-2H-pyran-4-yl)-1H-indole-2-carbonyl)-4,5,6,7-tetrahydro-2H-pyrazolo[4,3-c]pyridin-3-yl)-2-oxo-2,3-dihydro-1H-imidazol-1-yl)phenyl)methanesulfonamide]", "EC50": 0.036}, {"smiles": "Cc1cc(-n2nc3c(c2-n2ccn(-c4cccc(N5CCCS5(=O)=O)c4)c2=O)[C@H](C)N(C(=O)c2cc4cc(C5CCOCC5)ccc4n2[C@@]2(c4noc(=O)[nH]4)C[C@@H]2C)CC3)cc(C)c1F", "note": "[Compound 106a, 3-((1S,2S)-1-(2-((S)-3-(3-(3-(1,1-dioxidoisothiazolidin-2-yl)phenyl)-2-oxo-2,3-dihydro-1H-imidazol-1-yl)-2-(4-fluoro-3,5-dimethylphenyl)-4-methyl-4,5,6,7-tetrahydro-2H-pyrazolo[4,3-c]pyridine-5-carbonyl)-5-(tetrahydro-2H-pyran-4-yl)-1H-indol-1-yl)-2-methylcyclopropyl)-1,2,4-oxadiazol-5(4H)-one]", "EC50": 0.7}, {"smiles": "Cc1cc(-n2nc3c(c2-n2ccn(-c4ccc(N5CCCS5(=O)=O)cc4)c2=O)[C@H](C)N(C(=O)c2cc4cc(C5CCOCC5)ccc4n2[C@@]2(c4noc(=O)[nH]4)C[C@@H]2C)CC3)cc(C)c1F", "note": "[Compound 107a, 3-((1S,2S)-1-(2-((S)-3-(3-(4-(1,1-dioxidoisothiazolidin-2-yl)phenyl)-2-oxo-2,3-dihydro-1H-imidazol-1-yl)-2-(4-fluoro-3,5-dimethylphenyl)-4-methyl-4,5,6,7-tetrahydro-2H-pyrazolo[4,3-c]pyridine-5-carbonyl)-5-(tetrahydro-2H-pyran-4-yl)-1H-indol-1-yl)-2-methylcyclopropyl)-1,2,4-oxadiazol-5(4H)-one]", "EC50": 0.18}, {"smiles": "Cc1cc(-n2nc3c(c2-n2ccn(-c4ccc(S(=O)(=O)C5CC5)cc4)c2=O)[C@H](C)N(C(=O)c2cc4cc(C5CCOCC5)ccc4n2[C@@]2(c4noc(=O)[nH]4)C[C@@H]2C)CC3)cc(C)c1F", "note": "[Compound 108a, 3-((1S,2S)-1-(2-((S)-3-(3-(4-(cyclopropylsulfonyl)phenyl)-2-oxo-2,3-dihydro-1H-imidazol-1-yl)-2-(4-fluoro-3,5-dimethylphenyl)-4-methyl-4,5,6,7-tetrahydro-2H-pyrazolo[4,3-c]pyridine-5-carbonyl)-5-(tetrahydro-2H-pyran-4-yl)-1H-indol-1-yl)-2-methylcyclopropyl)-1,2,4-oxadiazol-5(4H)-one]", "EC50": 0.043}, {"smiles": "Cc1cc(-n2nc3c(c2-n2ccn(-c4cccc(CCS(C)(=O)=O)c4)c2=O)[C@H](C)N(C(=O)c2cc4cc(C5CCOCC5)ccc4n2[C@@]2(c4noc(=O)[nH]4)C[C@@H]2C)CC3)cc(C)c1F", "note": "[Compound 109a, 3-((1S,2S)-1-(2-((S)-2-(4-fluoro-3,5-dimethylphenyl)-4-methyl-3-(3-(3-(2-(methylsulfonyl)ethyl)phenyl)-2-oxo-2,3-dihydro-1H-imidazol-1-yl)-4,5,6,7-tetrahydro-2H-pyrazolo[4,3-c]pyridine-5-carbonyl)-5-(tetrahydro-2H-pyran-4-yl)-1H-indol-1-yl)-2-methylcyclopropyl)-1,2,4-oxadiazol-5(4H)-one]", "EC50": 0.24}, {"smiles": "Cc1cc(-n2nc3c(c2-n2ccn(-c4ccc(CCS(C)(=O)=O)cc4F)c2=O)[C@H](C)N(C(=O)c2cc4cc(C5CCOCC5)ccc4n2[C@@]2(c4noc(=O)[nH]4)C[C@@H]2C)CC3)cc(C)c1F", "note": "[Compound 110a, 3-((1S,2S)-1-(2-((S)-2-(4-fluoro-3,5-dimethylphenyl)-3-(3-(2-fluoro-4-(2-(methylsulfonyl)ethyl)phenyl)-2-oxo-2,3-dihydro-1H-imidazol-1-yl)-4-methyl-4,5,6,7-tetrahydro-2H-pyrazolo[4,3-c]pyridine-5-carbonyl)-5-(tetrahydro-2H-pyran-4-yl)-1H-indol-1-yl)-2-methylcyclopropyl)-1,2,4-oxadiazol-5(4H)-one]", "EC50": 0.05}, {"smiles": "CCS(=O)(=O)C(C)c1ccc(-n2ccn(-c3c4c(nn3-c3cc(C)c(F)c(C)c3)CCN(C(=O)c3cc5cc(C6CCOCC6)ccc5n3[C@@]3(c5noc(=O)[nH]5)C[C@@H]3C)[C@H]4C)c2=O)c(F)c1", "note": "(stereo partly drawn) [Compound 111a, 3-((1S,2S)-1-(2-((4S)-3-(3-(4-(1-(ethylsulfonyl)ethyl)-2-fluorophenyl)-2-oxo-2,3-dihydro-1H-imidazol-1-yl)-2-(4-fluoro-3,5-dimethylphenyl)-4-methyl-4,5,6,7-tetrahydro-2H-pyrazolo[4,3-c]pyridine-5-carbonyl)-5-(tetrahydro-2H-pyran-4-yl)-1H-indol-1-yl)-2-methylcyclopropyl)-1,2,4-oxadiazol-5(4H)-one]", "EC50": 0.32}, {"smiles": "CCS(=O)(=O)Cc1ccc(-n2ccn(-c3c4c(nn3-c3cc(C)c(F)c(C)c3)CCN(C(=O)c3cc5cc(C6CCOCC6)ccc5n3C3(c5noc(=O)[nH]5)CC3)[C@H]4C)c2=O)cc1", "note": "[Compound 112a, (S)-3-(1-(2-(3-(3-(4-((ethylsulfonyl)methyl)phenyl)-2-oxo-2,3-dihydro-1H-imidazol-1-yl)-2-(4-fluoro-3,5-dimethylphenyl)-4-methyl-4,5,6,7-tetrahydro-2H-pyrazolo[4,3-c]pyridine-5-carbonyl)-5-(tetrahydro-2H-pyran-4-yl)-1H-indol-1-yl)cyclopropyl)-1,2,4-oxadiazol-5(4H)-one]", "EC50": 0.17}]}, {"biological_target": "GLP-1 Receptor (Homo sapiens, UniProt P43220)", "experiment": "GLP-1R agonist cAMP stimulation assay (HEK293/GLP1R/CRE-LUC cells, HTRF cAMP dynamic 2 kit)", "format": "cell-based", "details": "HEK293/CRE-Luc cell line (HDB) stably expressing GLP-1 Receptor; 30 min incubation at 37° C.; read-out: GLP1R cAMP Stimulation DR: pEC50 (M) [Species: Human, Assay Cell Line: HDB] (converted)", "procedure": "as §1, §2, §3, §4", "units": {"EC50": "nM"}, "values": [{"smiles": "Cc1cc(-n2nc3c(c2-n2ccn(-c4ccc(CS(C)(=O)=O)cc4)c2=O)[C@H](C)N(C(=O)c2cc4cc(C5CCOCC5)ccc4n2[C@@]2(c4noc(=O)[nH]4)C[C@@H]2C)CC3)cc(C)c1F", "note": "[Compound 101a, 3-((1S,2S)-1-(2-((S)-2-(4-fluoro-3,5-dimethylphenyl)-4-methyl-3-(3-(4-((methylsulfonyl)methyl)phenyl)-2-oxo-2,3-dihydro-1H-imidazol-1-yl)-4,5,6,7-tetrahydro-2H-pyrazolo[4,3-c]pyridine-5-carbonyl)-5-(tetrahydro-2H-pyran-4-yl)-1H-indol-1-yl)-2-methylcyclopropyl)-1,2,4-oxadiazol-5(4H)-one]", "EC50": 0.0316}, {"smiles": "Cc1cc(-n2nc3c(c2-n2ccn(-c4ccc(N5CCCS5(=O)=O)cc4)c2=O)[C@H](C)N(C(=O)c2cc4cc(C5CCOCC5)ccc4n2[C@@]2(c4noc(=O)[nH]4)C[C@@H]2C)CC3)cc(C)c1F", "note": "[Compound 107a, 3-((1S,2S)-1-(2-((S)-3-(3-(4-(1,1-dioxidoisothiazolidin-2-yl)phenyl)-2-oxo-2,3-dihydro-1H-imidazol-1-yl)-2-(4-fluoro-3,5-dimethylphenyl)-4-methyl-4,5,6,7-tetrahydro-2H-pyrazolo[4,3-c]pyridine-5-carbonyl)-5-(tetrahydro-2H-pyran-4-yl)-1H-indol-1-yl)-2-methylcyclopropyl)-1,2,4-oxadiazol-5(4H)-one]", "EC50": 0.17}]}]}
